Measurements published in ChEMBL document CHEMBL1134172, “Bicyclic nucleoside inhibitors of Varicella-Zoster Virus (VZV): the effect of terminal unsaturation in the side chain” (Bioorg Med Chem Lett, 2001).

Columns and labels:
[1] = tested on: HEL; experiment: Cytotoxic concentration required to inhibit HEL cell growth by 50 %; format: functional; conditions: Homo sapiens
[2] = tested on: HEL; experiment: Minimum cytotoxic concentration required to alter microscopically detectable HEL cell morphology; format: functional; conditions: Homo sapiens
[3] = tested on: Human alphaherpesvirus 3; experiment: Effective concentration required for reduction of plaque formation of Varicella-Zoster Virus (OKA strain); format: functional, organism-based
[4] = tested on: Human alphaherpesvirus 3; experiment: Effective concentration required for reduction of plaque formation of Varicella-Zoster Virus, (YS strain); format: functional, organism-based
[5] = tested on: Human alphaherpesvirus 3; experiment: Effective concentration required for reduction of plaque formation of thymidine kinase deficient Varicella-Zoster Virus (071 strain); format: functional, organism-based
[6] = tested on: Human alphaherpesvirus 3; experiment: Effective concentration required for reduction of plaque formation of thymidine kinase deficient Varicella-Zoster Virus (YSR strain); format: functional, organism-based

Row | SMILES | EC50 [3] | EC50 [4] | EC50 [5] | EC50 [6] | CC50 [1] | MCC [2]
1 | CCCCCCCCCCc1cc2cn([C@H]3C[C@H](O)[C@@H](CO)O3)c(=O)nc2o1 | – | – | – | – | > 50 µM | –
2 | CCCCCCCCc1cc2cn([C@H]3C[C@H](O)[C@@H](CO)O3)c(=O)nc2o1 | – | – | – | – | > 50 µM | –
3 | CCCCCCc1cc2cn([C@H]3C[C@H](O)[C@@H](CO)O3)c(=O)nc2o1 | – | – | – | – | > 200 µM | > 50 µM
4 | CCCCCCCc1cc2cn([C@H]3C[C@H](O)[C@@H](CO)O3)c(=O)nc2o1 | – | – | – | – | > 50 µM | –
5 | C=CCCCc1cc2cn([C@H]3C[C@H](O)[C@@H](CO)O3)c(=O)nc2o1 | > 200 µM | > 200 µM | > 200 µM | > 200 µM | > 200 µM | > 200 µM
6 | CCCCCc1cc2cn([C@H]3C[C@H](O)[C@@H](CO)O3)c(=O)nc2o1 | – | – | – | – | > 50 µM | –
7 | C#CCCCc1cc2cn([C@H]3C[C@H](O)[C@@H](CO)O3)c(=O)nc2o1 | 8 µM | 10 µM | > 200 µM | > 200 µM | > 200 µM | > 200 µM
8 | Nc1nc2c(ncn2COCCO)c(=O)[nH]1 [ACYCLOVIR] | – | – | > 4 µM | – | > 200 µM | –

Now from value to compound, other results behind:

Row | EC50 [3] | EC50 [4] | EC50 [5] | EC50 [6] | SMILES | CC50 [1] | MCC [2]
9 | 5 µM | 4 µM | > 200 µM | > 200 µM | C#CCCCCCCc1cc2cn([C@H]3C[C@H](O)[C@@H](CO)O3)c(=O)nc2o1 | > 200 µM | > 200 µM
10 | 79 µM | 37 µM | > 200 µM | > 200 µM | C#CCCCCCc1cc2cn([C@H]3C[C@H](O)[C@@H](CO)O3)c(=O)nc2o1 | > 200 µM | > 200 µM
11 | 14 µM | 13 µM | > 200 µM | > 200 µM | C=CCCCCc1cc2cn([C@H]3C[C@H](O)[C@@H](CO)O3)c(=O)nc2o1 | > 200 µM | > 200 µM
12 | 0.27 µM | 0.06 µM | > 200 µM | > 50 µM | C=CCCCCCCc1cc2cn([C@H]3C[C@H](O)[C@@H](CO)O3)c(=O)nc2o1 | > 200 µM | > 200 µM
13 | 0.09 µM | 0.1 µM | > 200 µM | > 200 µM | C=CCCCCCCCCc1cc2cn([C@H]3C[C@H](O)[C@@H](CO)O3)c(=O)nc2o1 | > 200 µM | > 50 µM
14 | 25 µM | 33 µM | > 200 µM | > 200 µM | C#CCCCCc1cc2cn([C@H]3C[C@H](O)[C@@H](CO)O3)c(=O)nc2o1 | > 200 µM | > 200 µM
